In patent publication US9738615B2, “Cyclophilin D inhibitors” (The University of Kansas, priority 2014, dated 2017):
“Also recorded” adds a separate entry of the source.

Tests used:
[1] = test system: SK-N-SH cells; experiment: Cytochrome c oxidase (CcO) activity in Aβ1-42-treated cells; assay type: cell-based
Method: The effect of the CypD inhibitors on cytochrome c oxidase (CcO) was studied. The effect of the CypD inhibitors on Aβ-induced mitochondrial respiratory function was assessed by determining cytochrome c oxidase (CcO) activity. CcO is a vital enzyme associated with the mitochondrial electron transport chain. SK-N-SH cells were treated for 48 hours with 5 μM of oligomer Aβ1-42 in the presence of 10-20 μM of CypD inhibitor C-9, after which samples were tested for CcO enzyme activity levels.

[2] = target: CypD PPIase (Homo sapiens, UniProt P30405); experiment: CypD PPIase enzyme activity inhibition (real-time kinetics assay); assay type: biochemical; conditions: for Inhibition of CypD PPIase activity (in words): reaction progress curves, 0.39 to 50 uM (Compound 9: 0.19 to 100 uM), 25° C.
Method: The ability of CypD inhibitors to inhibit CypD PPIase enzyme activity was determined using a previously utilized “standard” procedure (Kofron, J. L.; Kuzmic, P.; Kishore, V.; Colon-Bonilla, E.; Rich, D. H., Determination of kinetic constants for peptidyl prolyl cis-trans isomerases by an improved spectrophotometric assay. Biochemistry 1991, 30, 6127-34). The results are presented in FIGS. 2A-2D and compared to CsA in FIG. 2E.
Linearity was maintained up to 5 minutes of incubation at 25° C. […] Linearity was maintained up to 5 minutes of incubation at 25° C. […] FIG. 10 show reaction progress curves collected for CypD activity in DMSO alone or at various Compound 6C concentrations ranging from 0.39 to 50 uM. Linearity was maintained up to 5 minutes of incubation at 25° C. […] FIG. 11 show reaction progress curves collected for CypD activity in DMSO alone or at various Compound 9 concentrations ranging from 0.19 to 100 uM. Linearity was maintained up to 5 minutes of incubation at 25° C.
Since inhibition of CypD PPIase activity was essential for potentiation of Aβ cytotoxicity, Aβ-induced cytotoxicity can presumably be decreased if the Aβ-CypD interaction is blocked with small-molecule inhibitors like Compound 9.

[3] = Blood brain barrier penetration, LC-MS/MS of CSF, plasma and brain; assay type: in vivo; conditions: mice, 10 mg/kg dose i.v., CSF and brain 4 hours after administration
Method: Samples were collected 4 hours after i.v. administration of 10 mg/kg of Compound 6A in mice. […] Samples were collected 4 hours after i.v. administration of 10 mg/kg of Compound 6B in mice. […] Samples were collected 4 hours after i.v. administration of 10 mg/kg of Compound 6C in mice.
Additionally a selective and sensitive method for detecting the presence of four compounds (Compounds 6A, 6B, 6C & 9) as CypD inhibitors in mouse plasma, brain and artificial cerebrospinal fluid is based on high performance liquid chromatography tandem mass spectrometry. Mass spectra were generated using Micromass Quattro Ultima “triple” quadrupole mass spectrometer equipped with Electrospray ionization interface. The method used for pharmacokinetic studies of compounds in mouse cerebrospinal fluid, plasma, and brain is accurate, precise, and specific with no matrix effect.

[4] = target: human recombinant CypD protein (Homo sapiens, UniProt P30405); experiment: Surface plasmon resonance (SPR) binding to immobilized CypD; conditions: for Kd: 1:1 Langmuir binding fit, CypD immobilized on CM5 chip, read-out: KD (equilibrium dissociation constant); for Binding to CypD (in words): dose dependent
Method: In vitro SPR was used to verify the ability of the CypD inhibitors to bind to human recombinant CypD protein, which correlates with its potential CypD inhibitory activity.
Surface plasmon resonance (SPR) analysis of CypD-Pyrimidine derivative binding interaction, where the globally fit data (black lines) were overlaid with experimental data (greyish lines). Human recombinant CypD protein (10 μg/ml) was immobilized directly on the hydrophilic carboxy methylated dextran matrix of the CM5 sensor chip (Biacore-3000) using the standard primary amine coupling reaction according to standard procedures. Compound 9 (2.5, 5, 10, 15, 20 μM) was injected at a flow rate of 40 μl/min for the determination of the kinetic and equilibrium constants. All data analyses were carried out using BIA evaluation software, and sensor grams were processed by automatic correction for nonspecific bulk refractive index.
The equilibrium dissociation constant (KD) was determined using a 1:1 Langmuir binding fit model and the association (kon) and dissociation (koff) rate constants were determined using Equations (1) and (2). dR/dt=kon×C×(Rmax−R)−koff×R (1)
Where R represents the response unit, C is the concentration of the analyte, and KD=koff/kon (2)
The obtained results were evaluated by χ^2 analysis and the kinetic parameters for Compound 9 are provided.

[5] = test system: SK-N-SH cells; experiment: Aβ-induced neuronal cell death, MTT reduction assay; assay type: cell-based; conditions: 10 and 20 μM
Source text: Assays examined the effect of the CypD inhibitor compounds on Aβ-induced neuronal cell death, commonly observed in AD. […] The addition of various dosages of inhibitor to the cells in the presence of Aβ1-42 increased cell viability. […] Thus, this evidence provides support that inhibition of CypD with specific inhibitors can provide a beneficial and powerful therapeutic tool in AD treatment.

[6] = test system: SK-N-SH cells; experiment: MTT reduction cell viability assay (toxicity of inhibitor alone); assay type: cell-based; conditions: 0, 5, 10, 25, 50, and 100 μM in healthy SK-N-SH cells
Source text: The effect of the CypD inhibitors on cell viability was studied. Excellent reversal effects of the CypD inhibitor on Aβ-affected processes were observed, including diminished mitochondrial swelling, and enhanced CcO activity and ATP production, assessment of the overall cell health of SK-N-SH cells treated with the CypD inhibitors were studied. A wide dosing range was utilized to examine the effect of the CypD inhibitors on cell viability using an MTT (3-(4,5-dimethylthiazol-2-yl)-2,5-diphenyltetrazolium_bromide) reduction assay (0, 5, 10, 25, 50, and 100 μM of inhibitor diluted in cell culture medium).

[7] = test system: cortical mitochondria; experiment: Calcium-induced mitochondrial swelling assay; parameters: species or system mice; conditions: mouse cortical mitochondria treated with Ca2+, compound added dose-dependently
Source text: Mitochondrial swelling in response to calcium was also studied. It is known that CypD-deficient cortical mitochondria are resistant to Aβ- and calcium (Ca^2+)-induced mitochondrial swelling and mitochondrial permeability transition. […] In order to determine the relationship between Ca^2+ and mitochondrial swelling, cortical mitochondria were isolated from mice and subjected to a swelling assay. Mitochondria treated with Ca^2+ experienced excessive swelling.
The fact that brain mitochondrial swelling was not affected by the inhibitors alone implies a symbiotic relationship between Ca^2+ and the inhibitor.

[8] = test system: SK-N-SH cells; experiment: Cellular ATP levels in Aβ1-42-treated cells; assay type: cell-based; conditions: 48 hours
Method: The effect of the CypD inhibitors on the levels of adenosine-5′-triphosphate (ATP) was studied. To determine the effect of the CypD inhibitors on Aβ-induced energy metabolism impairment, cellular ATP levels were analyzed. SK-N-SH cells were exposed to 5 μM of Aβ1-42 in the presence of 10-20 μM of Compound 9. After 48 hours, we measured the ATP concentrations in the cell lysates.

Chain of human recombinant CypD protein (P30405 30-207): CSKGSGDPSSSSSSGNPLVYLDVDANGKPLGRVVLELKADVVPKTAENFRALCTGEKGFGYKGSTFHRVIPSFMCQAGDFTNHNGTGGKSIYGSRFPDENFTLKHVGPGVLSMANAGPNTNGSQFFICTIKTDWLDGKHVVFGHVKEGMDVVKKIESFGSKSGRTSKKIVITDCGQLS
Chain of CypD PPIase (P30405 30-207): as above

Blood-brain barrier penetration [3] | Kd [4] [nM] | Binding to CypD (in words) [4] | IC50 ([2]; real time fluorescence monitoring, read-out: IC50 inhibiting PPIase activity of CypD) [nM] | SMILES | Aβ-induced mitochondrial dysfunction (cytochrome c oxidase and ATP levels) [1] | Inhibition of CypD PPIase activity (in words) [2] | Cell viability in the presence of Aβ1-42 (MTT reduction) [5] | CcO activity in Aβ-treated cells ([1]; 5 μM oligomer Aβ1-42, 10-20 μM inhibitor, 48 hours) | Cell viability (MTT reduction), inhibitor alone [6] | Calcium-induced mitochondrial swelling [7] | ATP levels in Aβ-treated cells ([8]; 5 μM Aβ1-42, 10-20 μM compound, cell lysates) | ATP levels in cells exposed to inhibitor versus vehicle-treated cells without Aβ1-42 ([8]; 10-20 μM compound)
penetrate the blood-brain barrier |  |  |  | CCOC(=O)C1=C(C)N=C2SC=C(CCc3ccccc3)N2C1c1cccc([N+](=O)[O-])c1 (centres unmarked) [Compound 6A] | abolished Aβ-induced mitochondrial dysfunction | inhibits CypD activity; also recorded: effective in reducing CypD peptidyl prolyl isomerase enzyme activity |  |  |  |  |  | 
penetrate the blood-brain barrier | 248 | high binding affinity |  | CCOC(=O)C1=C(C)N=C2SC=C(CCc3ccccc3)N2C1c1ccc(O)cc1 (centres unmarked) [Compound 6B] | abolished Aβ-induced mitochondrial dysfunction | inhibits CypD activity; also recorded: effective in reducing CypD peptidyl prolyl isomerase enzyme activity |  |  |  |  |  | 
penetrate the blood-brain barrier |  |  |  | CCOC(=O)C1=C(C)N=C2SC=C(CCc3ccccc3)N2C1c1ccc(F)cc1 (centres unmarked) [Compound 6C] | abolished Aβ-induced mitochondrial dysfunction | inhibits CypD activity; also recorded: effective in reducing CypD peptidyl prolyl isomerase enzyme activity |  |  |  |  |  | 
penetrate the blood-brain barrier | 149 | high binding affinity | 1490 ± 200 | Cc1nc(-c2ccc(OCC(C)C)c(C#N)c2)sc1C(=O)Nc1ccc(S(N)(=O)=O)cc1 [Compound 9] | abolished Aβ-induced mitochondrial dysfunction | inhibits CypD activity; also recorded: effective in reducing CypD peptidyl prolyl isomerase enzyme activity | significant effect on cell health | rescued CcO activity | no significant effect | swelling was diminished | rescued ATP concentrations | comparable to those of vehicle-treated cells
